From doi:10.1101/2024.06.17.599304v1, “Dizocilpine derivatives with neuroprotective effect lacking the psychomimetic side effects” (biorxiv, 2024)
Structures can show the parent of a compound that is named as a salt. Where two headings read alike, the source gives them in different places.

Assays:
[1] = target: T1, human recombinant AChE (hAChE) (Homo sapiens, UniProt P22303); assay: modified Ellman's method; assay type: biochemical
T1 construct: recombinant enzyme purchased from Merck

[2] = target: T2, human plasmatic butyrylcholinesterase (hBChE) (Homo sapiens, UniProt P06276); assay: biochemical
T2 construct: gene BCHE

hGluN1/hGluN2B [3] = target: T3, hGluN1/hGluN2B (Homo sapiens, UniProt Q05586+Q13224); assay: whole-cell patch clamp, HEK293; assay type: cell-based; design: gene GRIN1; cDNA vectors for human GluN1-1a and GluN2B co-transfected with GFP in HEK293 cells; diheteromeric receptor; settings: -60 mV; 1 mM L-glutamate, 100 µM glycine; pH 7.3; voltage-dependent block
Excerpt: whole-cell patch clamp, HEK293 on hGluN1/hGluN2B

hGluN1/hGluN2A [4] = target: T4, hGluN1/hGluN2A (Homo sapiens, UniProt Q05586+Q12879); assay: whole-cell patch clamp, HEK293; assay type: cell-based; design: gene GRIN1; cDNA vectors for human GluN1-1a and GluN2A co-transfected with GFP in HEK293 cells; diheteromeric receptor; settings: -60 mV; 1 mM L-glutamate, 100 µM glycine; pH 7.3; voltage-dependent block
Excerpt: whole-cell patch clamp, HEK293 on hGluN1/hGluN2A

hGluN1/hGluN2A [5] = target: T4, hGluN1/hGluN2A; assay: cell-based; design: gene GRIN1; cDNA vectors for human GluN1-1a and GluN2A co-transfected with GFP in HEK293 cells; diheteromeric receptor; whole-cell voltage-clamp electrophysiology, inhibition of steady-state L-glutamate-induced currents at -60 mV; settings: HEK293; -60 mV, 1 mM L-glutamate
Method: (§1) First, we determined the relative inhibition of all novel compounds on the two major diheteromeric NMDA receptor subtypes in the adult cortex – GluN1/GluN2A and GluN1/GluN2B [1] – using a clinically relevant concentration (3 µM). We kept the measured cells at a membrane potential of -60 mV, and the values of relative inhibition by the compounds were calculated from the L-glutamate-induced responses of human versions of the GluN1/GluN2A (hGluN1/hGluN2A) and GluN1/GluN2B (hGluN1/hGluN2B) receptors obtained under steady-state conditions. […] Specifically, in the case of hGluN1/hGluN2A receptors, we obtained relative inhibition values ranging from ∼5% for compound 3h to ∼93% for compound 6f, while for hGluN1/hGluN2B receptors, we measured values ranging from ∼3% for compound 3i to ∼92% for compound 6g at a fixed dose of 3 µM of the tested compound. […] It can be assumed that the positive and negative effects of a given inhibitor of the NMDA receptor in vivo are caused by their affinity and the kinetics of inhibition, in addition to their availability in the CNS. […] In further experiments, we generated concentration-response curves for 6f (0.03-10 µM) and 3l (0.3-300 µM) on both hGluN1/hGluN2A and hGluN1/hGluN2B receptors at negative (-60 mV) and positive (40 mV) membrane potentials (Fig. 2A-D). […] (A, C) Representative whole-cell voltage-clamp recordings of HEK293 cells expressing hGluN1/hGluN2A or hGluN1/hGluN2B receptors showing the inhibitory effects of compound 6f (0.03 - 300 µM) and compound 3l (0.3 - 300 µM) at membrane potentials of 40 mV (A) and -60 mV (C). Glu = 1 mM L-glutamate. (B, D) Normalized inhibitory concentration-response curves for compound 6f and compound 3l for hGluN1/hGluN2A and hGluN1/hGluN2B receptors at membrane potentials of 40 mV (B) and -60 mV (D). Concentration-response curves were fitted using Equation 1; the resulting IC50 values, Hill coefficients, and the numbers of cells measured for each membrane potential are shown in Table 3.

hGluN1/hGluN2B [6] = target: T3, hGluN1/hGluN2B; assay: cell-based; design: gene GRIN1; cDNA vectors for human GluN1-1a and GluN2B co-transfected with GFP in HEK293 cells; diheteromeric receptor; whole-cell voltage-clamp electrophysiology, inhibition of steady-state L-glutamate-induced currents at -60 mV; settings: HEK293; -60 mV, 1 mM L-glutamate
Method: as §1

[7] = target: T2, human plasmatic butyrylcholinesterase (hBChE)

T2 sequence (P06276 29-602): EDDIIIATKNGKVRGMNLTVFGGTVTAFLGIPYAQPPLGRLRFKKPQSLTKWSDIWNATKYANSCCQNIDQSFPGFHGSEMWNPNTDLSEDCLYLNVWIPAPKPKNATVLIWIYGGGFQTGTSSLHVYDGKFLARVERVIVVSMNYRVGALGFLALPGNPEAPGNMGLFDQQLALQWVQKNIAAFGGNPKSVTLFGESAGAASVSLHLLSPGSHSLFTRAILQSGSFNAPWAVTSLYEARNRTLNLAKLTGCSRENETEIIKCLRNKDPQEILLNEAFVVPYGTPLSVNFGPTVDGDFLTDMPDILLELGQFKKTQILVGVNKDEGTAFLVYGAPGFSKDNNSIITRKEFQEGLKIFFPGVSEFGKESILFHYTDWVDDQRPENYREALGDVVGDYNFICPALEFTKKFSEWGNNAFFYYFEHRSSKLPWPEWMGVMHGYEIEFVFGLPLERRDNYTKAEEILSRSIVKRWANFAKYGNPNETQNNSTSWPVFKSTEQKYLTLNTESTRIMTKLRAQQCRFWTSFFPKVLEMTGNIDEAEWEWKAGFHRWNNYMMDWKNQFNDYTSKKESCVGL
T3 sequence (Q13224 27-1484, other chains not shown): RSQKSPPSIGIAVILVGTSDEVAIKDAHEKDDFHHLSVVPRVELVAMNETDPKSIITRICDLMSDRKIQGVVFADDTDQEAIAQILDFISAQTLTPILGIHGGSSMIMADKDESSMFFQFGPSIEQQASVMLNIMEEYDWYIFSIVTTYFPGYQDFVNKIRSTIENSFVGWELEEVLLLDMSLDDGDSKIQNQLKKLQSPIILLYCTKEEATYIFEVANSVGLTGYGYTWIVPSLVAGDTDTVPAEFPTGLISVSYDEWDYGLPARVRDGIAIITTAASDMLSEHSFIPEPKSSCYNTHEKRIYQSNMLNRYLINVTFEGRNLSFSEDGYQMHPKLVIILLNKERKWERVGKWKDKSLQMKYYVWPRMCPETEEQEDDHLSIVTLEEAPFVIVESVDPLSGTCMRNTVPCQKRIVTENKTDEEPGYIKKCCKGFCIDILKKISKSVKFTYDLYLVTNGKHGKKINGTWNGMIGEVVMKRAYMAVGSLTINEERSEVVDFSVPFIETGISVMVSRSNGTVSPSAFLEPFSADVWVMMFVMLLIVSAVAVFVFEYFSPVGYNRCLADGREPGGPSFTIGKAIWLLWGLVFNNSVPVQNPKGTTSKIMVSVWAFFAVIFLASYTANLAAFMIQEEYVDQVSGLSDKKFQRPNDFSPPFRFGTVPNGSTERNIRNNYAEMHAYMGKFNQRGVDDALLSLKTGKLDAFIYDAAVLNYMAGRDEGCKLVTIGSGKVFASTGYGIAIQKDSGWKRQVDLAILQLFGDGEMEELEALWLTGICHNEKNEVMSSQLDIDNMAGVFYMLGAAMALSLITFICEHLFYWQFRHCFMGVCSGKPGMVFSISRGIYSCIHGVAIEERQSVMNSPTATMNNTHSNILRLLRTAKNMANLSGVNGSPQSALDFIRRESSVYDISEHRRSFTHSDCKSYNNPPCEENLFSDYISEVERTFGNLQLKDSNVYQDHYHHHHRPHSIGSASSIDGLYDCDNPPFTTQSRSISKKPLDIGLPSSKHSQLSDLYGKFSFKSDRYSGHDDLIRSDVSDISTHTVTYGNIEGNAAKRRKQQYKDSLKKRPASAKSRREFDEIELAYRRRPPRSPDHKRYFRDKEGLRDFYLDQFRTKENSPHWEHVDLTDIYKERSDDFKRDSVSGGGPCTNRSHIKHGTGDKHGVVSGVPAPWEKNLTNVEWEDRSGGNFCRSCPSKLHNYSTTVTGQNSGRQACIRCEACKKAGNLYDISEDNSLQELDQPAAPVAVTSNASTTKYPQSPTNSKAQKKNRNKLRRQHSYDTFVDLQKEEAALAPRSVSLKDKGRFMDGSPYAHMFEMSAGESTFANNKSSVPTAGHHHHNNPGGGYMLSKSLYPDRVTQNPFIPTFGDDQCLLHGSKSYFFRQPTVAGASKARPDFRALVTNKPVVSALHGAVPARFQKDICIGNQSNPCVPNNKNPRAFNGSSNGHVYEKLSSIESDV
T4 sequence (Q12879 23-1464, other chains not shown): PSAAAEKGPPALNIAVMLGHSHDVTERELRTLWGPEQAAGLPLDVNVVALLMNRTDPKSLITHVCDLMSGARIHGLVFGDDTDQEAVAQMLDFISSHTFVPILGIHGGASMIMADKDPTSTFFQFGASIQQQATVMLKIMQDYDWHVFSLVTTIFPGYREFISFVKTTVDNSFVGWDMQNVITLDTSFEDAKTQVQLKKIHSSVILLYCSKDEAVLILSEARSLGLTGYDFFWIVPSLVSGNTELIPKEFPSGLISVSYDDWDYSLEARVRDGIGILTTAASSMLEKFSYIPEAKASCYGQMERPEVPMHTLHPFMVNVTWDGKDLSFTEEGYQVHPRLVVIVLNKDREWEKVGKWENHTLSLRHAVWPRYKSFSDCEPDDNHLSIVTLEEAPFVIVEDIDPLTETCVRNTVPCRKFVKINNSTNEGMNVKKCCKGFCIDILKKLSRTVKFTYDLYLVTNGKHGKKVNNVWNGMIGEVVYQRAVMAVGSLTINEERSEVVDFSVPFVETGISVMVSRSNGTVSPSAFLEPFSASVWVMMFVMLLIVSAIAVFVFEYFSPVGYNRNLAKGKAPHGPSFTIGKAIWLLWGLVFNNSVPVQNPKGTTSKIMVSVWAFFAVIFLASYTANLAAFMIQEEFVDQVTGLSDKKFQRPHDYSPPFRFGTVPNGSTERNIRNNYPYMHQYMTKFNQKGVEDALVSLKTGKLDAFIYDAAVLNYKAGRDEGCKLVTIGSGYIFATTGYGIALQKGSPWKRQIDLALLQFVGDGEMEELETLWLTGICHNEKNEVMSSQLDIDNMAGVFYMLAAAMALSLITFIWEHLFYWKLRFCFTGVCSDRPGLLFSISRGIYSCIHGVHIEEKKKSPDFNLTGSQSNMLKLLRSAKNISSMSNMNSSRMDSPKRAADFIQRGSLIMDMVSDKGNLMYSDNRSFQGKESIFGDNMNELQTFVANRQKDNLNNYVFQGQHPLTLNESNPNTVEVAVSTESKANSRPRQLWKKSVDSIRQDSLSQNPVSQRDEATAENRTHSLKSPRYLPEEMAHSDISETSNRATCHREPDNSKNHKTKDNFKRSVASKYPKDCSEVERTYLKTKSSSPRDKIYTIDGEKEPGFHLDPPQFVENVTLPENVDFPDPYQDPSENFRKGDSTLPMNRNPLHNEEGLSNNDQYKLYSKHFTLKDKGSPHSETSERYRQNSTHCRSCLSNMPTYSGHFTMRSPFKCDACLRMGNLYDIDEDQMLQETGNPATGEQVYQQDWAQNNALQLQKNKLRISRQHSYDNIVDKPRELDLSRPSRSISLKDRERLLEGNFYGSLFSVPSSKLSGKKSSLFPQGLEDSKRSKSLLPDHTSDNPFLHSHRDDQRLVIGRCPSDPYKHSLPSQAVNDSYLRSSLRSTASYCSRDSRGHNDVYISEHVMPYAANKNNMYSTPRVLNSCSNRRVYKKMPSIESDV
T1 sequence (P22303 32-614): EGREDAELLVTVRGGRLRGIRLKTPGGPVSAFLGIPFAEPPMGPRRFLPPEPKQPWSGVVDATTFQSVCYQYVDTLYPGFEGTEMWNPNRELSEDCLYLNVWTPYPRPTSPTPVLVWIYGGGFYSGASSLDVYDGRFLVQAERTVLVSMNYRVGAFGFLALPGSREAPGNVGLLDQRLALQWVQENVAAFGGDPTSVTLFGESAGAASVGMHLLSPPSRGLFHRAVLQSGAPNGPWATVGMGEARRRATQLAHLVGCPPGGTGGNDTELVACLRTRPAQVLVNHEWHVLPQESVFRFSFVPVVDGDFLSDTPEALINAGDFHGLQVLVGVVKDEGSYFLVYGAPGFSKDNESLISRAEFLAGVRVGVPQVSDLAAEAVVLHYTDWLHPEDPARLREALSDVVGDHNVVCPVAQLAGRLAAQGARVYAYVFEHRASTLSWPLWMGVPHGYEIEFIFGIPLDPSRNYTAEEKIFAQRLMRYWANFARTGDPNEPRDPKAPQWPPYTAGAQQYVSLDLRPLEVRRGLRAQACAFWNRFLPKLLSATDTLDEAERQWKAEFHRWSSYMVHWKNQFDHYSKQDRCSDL

| Structure (SMILES) | IC50 [1] [µM] | IC50 [2] [µM] | IC50 (hGluN1/hGluN2B [3]) [µM] | IC50 (hGluN1/hGluN2A [4]) [µM] | inhibition at 3 µM (hGluN1/hGluN2A [5]) [%] | inhibition at 3 µM (hGluN1/hGluN2B [6]) [%] | IC50 [7] [µM] |
| --- | --- | --- | --- | --- | --- | --- | --- |
| OCCNC1c2ccccc2CCc2ccccc21 [3l, 2-((10,11-dihydro-5H-dibenzo[a,d][7]annulen-5-yl)amino)ethanol hydrochloride] | > 100 | > 100 | 4.4 ± 0.42 | 4.42 ± 0.9 | 48 ± 5.18 | 49.7 ± 4.47 | – |
| CC(C)CNC1c2ccccc2C=Cc2ccccc21 [6f, N-isobutyl-5H-dibenzo[a,d][7]annulen-5-amine hydrochloride] | > 100 | > 100 | 0.16 ± 0.01 | 0.36 ± 0.06 | 93.2 ± 1.11 | 91.77 ± 0.71 | – |
| C1=Cc2ccccc2C(N2CCCCC2)c2ccccc21 [6h, 1-(5H-dibenzo[a,d][7]annulen-5-yl)piperidine hydrochloride] | – | – | – | – | 29.9 ± 2.73 | 58.4 ± 4.37 | 16.5 ± 0.9 |
